Values of other authors in patent US20150018389A1, “METHOD FOR TREATING PARKINSONS DISEASE AND OTHER NEUROLOGICAL DISEASES” (priority 2013, published 2015).

How the values were obtained:
[1] = serum vs in vitro pH 7.4
HIV [2] = conditions: infected cell lines induced with tumor necrosis factor alpha (Schauf et al. 1992)
HIV [3] = conditions: peripheral blood mononuclear cells of HIV-infected patients
CD4 lymphocyte counts = conditions: erythema nodosum leprosum (Moncada et al. 1985)
[4] = tested on: tumor necrosis factor alpha production by stimulated monocytes; conditions: stimulated monocytes (Sampaio et al. 1991)
[5] = tested on: tumor necrosis factor alpha; conditions: erythema nodosum leprosum, treatment with thalidomide (Sampaio et al. 1992)
[6] = not given; remark: listed apart in the source
[7] = not given; remark: listed apart in the source

## O=C1CCC(N2C(=O)c3ccccc3C2=O)C(=O)N1 (racemic) [Thalidomide, N-phthalidoglutarimide]
[1]
  hydrolytic cleavage in serum compared with in vitro at pH 7.4: much slower
HIV [2]
  HIV expression: inhibited
humans, orally administered
  absorption: poorly absorbed
In vivo
  plasma protein binding: highly bound to plasma proteins
HIV [3]
  HIV production: reduce
CD4 lymphocyte counts
  previously suppressed CD4 lymphocyte counts: increases
[4]
  tumor necrosis factor alpha production: inhibit
[5]
  elevated tumor necrosis factor alpha levels: reduced
[6]
  toxicity in a series of animal studies: has not been toxic
[7]
  side effects in humans: somnolence, teratogenicity and, upon extended administration, peripheral neuropathy
